Values belong to the compound of their own block, whether it stands above or below them.
Key:
[1] = target: T1, human mGlu2 (Homo sapiens, UniProt Q14416); assay: [3H]-compound A displacement binding, human mGlu2 HEK293 membranes; conditions: Glu2 HEK293, 6 nM [3H]-compound A
T1 construct: expressed in transfected cells; host or cells: HEK293
Protocol: (§1) For [^3H]-compound A (a NAM compound, selective for mGlu2/3 (˜20 fold selective for 2 over 3) vs other mGluRs) binding, membranes from human mGlu2 and mGlu3 HEK293 cells, and also rat cortical membranes, were used. After thawing, membranes were homogenized using an Ultra Turrax homogenizer and suspended in ice-cold binding buffer containing 50 mM Tris-HCl (pH 7.4), 10 mM MgCl2, 2 mM CaCl2. Displacement studies were done using 6 nM of radioligand, except for human mGlu3 membranes where 25 nM was used. Assay mixtures were incubated for 60 min at RT in a volume of 0.5 ml containing […] or 75 μg membrane protein of human mGlu2, human mGlu3 or rat cortex, respectively. Non-specific binding was estimated in the presence of […] compound B (a NAM with IC50˜10 nM against hmGlu2 and IC50˜200 nM against hmGlu3). Filtration was performed using Whatman GF/C filter sheets pre-soaked in 0.1% PEI and a Brandell harvester 96.
(§2) Filters from filters sheets were punched into vials. After the addition of scintillation liquid, radioactivity on the filters was counted in a Liquid Scintillation Analyzer from Perkin Elmer.
(§3) Radioligand competition binding data were calculated as percentage of total binding measured in the absence of test compound. Inhibition curves, plotting percentage of total binding versus the log concentration of the test compound, were generated using the Lexis software. Sigmoid inhibition curves were analyzed using non-linear regression analysis.

[2] = system: mGluR2/3; assay: microPET scan, baseline and after compound A pretreatment; type: in vivo; conditions: SD rats
Protocol: Data were acquired in a 128×128×95 matrix with a pixel width of 0.475 mm and a slice thickness of 0.796 mm. During PET imaging, rats were kept under gas anesthesia (2.5% isoflurane in oxygen at a flow rate of 1 l/min), and their body temperature was maintained between 36.5 and 37° C. using a heating pad. PET data were analyzed using Pmod software version 3.2 (Pmod, Zurich Switzerland).
(§4) Sprague-Dawley rats obtained from Harlan (the Netherlands), were housed in groups of four to six per cage until treatment. They were kept at a constant temperature of 21° C. and at a 12-h light/dark cycle, in which lights were switched on at 8:00 a.m. Animals had unrestricted access to food (Teklad Global 16% Protein Rodent Diet, Harlan, Madison, Wis., USA) and water. All animal experiments were performed in compliance with Belgium laws on animal experimentation and after approval by the local animal ethics committee.
All pretreatment solutions were 1 mg/mL solutions in 20% β-cyclodextrine in saline with a pH ranging between 6 and 8, and sterile filtered over a Millex GV filter prior to use.
For the baseline scan, 36-43 MBq of [^18F]-1 was injected in 3 SD rats weighing 229-251 g in the tail vein, and scanned simultaneously during a 90 min dynamic PET scan. For the pretreatment scan using compound A (a NAM compound, selective for mGlu2/3 (˜20 fold selective for 2 over 3) vs other mGluRs), the same animals were injected with 10 mg/kg compound A s.c. 60 minutes prior to injection of 38-37 MBq [^18F]-1 in the tail vein, and scanned simultaneously during a 90 minutes dynamic PET scan.
For the baseline scan, 39-49 MBq of [^18F]-2 was injected in 3 SD rats weighing 301-310 g in a tail vein, and scanned simultaneously during a 90-min dynamic PET scan. For the pretreatment scan using compound A, the same animals were injected with 10 mg/kg compound A s.c. 60 min prior to injection of 46-50 MBq [^18F]-2 in the tail vein, and scanned simultaneously during a 90 min dynamic PET scan.

[3] = Ex-vivo biodistribution in SD rats; set-up: species or system Sprague Dawley rats
Protocol: as §4
(§5) The biodistribution of [^18F]-1 was determined at 2, 10, 30 and 60 min, after injection in Sprague Dawley (SD) rats (n=3 per time point) while for [^18F]-2 the 30 min time point was not performed. Rats were injected intravenously with 0.7-1.1 MBq via a tail vein and euthanized at the time points indicated above, under isoflurane anesthesia. All tissues were dissected, weighed and counted for radioactivity in a gamma counter.
as §5, with “Dawley” for “Dawley (SD)”, “point).” for “point) while for [^18F]-2 the 30 min time point was not performed.”

[4] = target: T2, human mGlu3 (Homo sapiens, UniProt Q14832); assay: [3H]-compound A displacement binding, human mGlu3 HEK293 membranes; conditions: Glu3 HEK293, 25 nM [3H]-compound A
T2 construct: expressed in transfected cells; host or cells: HEK293
Protocol: as §1, §2, §3

T1 sequence (Q14416 19-872): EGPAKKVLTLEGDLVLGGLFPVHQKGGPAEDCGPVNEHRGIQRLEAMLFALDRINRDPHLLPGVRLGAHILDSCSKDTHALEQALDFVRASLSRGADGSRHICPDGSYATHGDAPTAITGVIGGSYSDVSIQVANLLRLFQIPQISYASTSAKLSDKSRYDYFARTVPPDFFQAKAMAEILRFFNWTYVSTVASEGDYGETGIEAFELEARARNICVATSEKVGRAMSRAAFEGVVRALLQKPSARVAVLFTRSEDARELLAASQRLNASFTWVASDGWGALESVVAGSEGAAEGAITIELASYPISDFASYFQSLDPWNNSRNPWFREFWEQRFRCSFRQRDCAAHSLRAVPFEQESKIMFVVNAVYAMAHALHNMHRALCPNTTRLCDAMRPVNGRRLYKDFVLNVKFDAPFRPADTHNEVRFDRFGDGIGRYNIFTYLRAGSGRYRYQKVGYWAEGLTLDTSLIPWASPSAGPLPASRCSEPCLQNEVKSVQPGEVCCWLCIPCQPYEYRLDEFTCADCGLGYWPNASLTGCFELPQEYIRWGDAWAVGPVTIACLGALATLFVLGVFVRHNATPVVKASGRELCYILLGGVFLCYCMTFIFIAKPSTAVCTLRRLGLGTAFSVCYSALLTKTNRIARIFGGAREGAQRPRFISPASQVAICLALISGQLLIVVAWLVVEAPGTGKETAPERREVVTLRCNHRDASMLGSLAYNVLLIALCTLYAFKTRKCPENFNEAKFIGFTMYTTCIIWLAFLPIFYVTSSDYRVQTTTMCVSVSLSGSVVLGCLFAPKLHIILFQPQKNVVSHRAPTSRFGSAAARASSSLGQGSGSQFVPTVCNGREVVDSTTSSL
T2 sequence (Q14832 23-879): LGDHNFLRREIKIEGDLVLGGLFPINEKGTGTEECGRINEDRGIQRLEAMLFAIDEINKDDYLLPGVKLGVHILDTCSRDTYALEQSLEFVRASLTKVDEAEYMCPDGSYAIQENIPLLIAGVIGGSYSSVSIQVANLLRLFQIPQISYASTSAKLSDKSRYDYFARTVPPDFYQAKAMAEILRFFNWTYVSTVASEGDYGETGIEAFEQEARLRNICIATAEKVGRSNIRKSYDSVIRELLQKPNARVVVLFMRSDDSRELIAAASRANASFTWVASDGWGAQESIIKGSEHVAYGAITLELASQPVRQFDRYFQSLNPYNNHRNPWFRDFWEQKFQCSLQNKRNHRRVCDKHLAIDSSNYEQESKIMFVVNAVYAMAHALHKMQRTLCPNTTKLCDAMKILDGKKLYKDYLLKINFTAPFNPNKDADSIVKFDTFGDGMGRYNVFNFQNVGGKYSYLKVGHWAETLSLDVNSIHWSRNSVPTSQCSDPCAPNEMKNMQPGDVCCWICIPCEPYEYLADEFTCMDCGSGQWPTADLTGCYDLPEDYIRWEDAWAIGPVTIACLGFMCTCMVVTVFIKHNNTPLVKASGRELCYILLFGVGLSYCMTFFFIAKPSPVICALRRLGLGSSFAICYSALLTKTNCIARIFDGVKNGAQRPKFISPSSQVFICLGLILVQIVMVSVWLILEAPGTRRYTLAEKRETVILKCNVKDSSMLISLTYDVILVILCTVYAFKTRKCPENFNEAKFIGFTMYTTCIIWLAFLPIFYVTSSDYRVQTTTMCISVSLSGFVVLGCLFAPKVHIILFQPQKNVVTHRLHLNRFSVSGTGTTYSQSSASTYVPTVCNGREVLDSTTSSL

melting point: 187.28 °C
SMILES: C[C@H]1CN(c2ccc(C(F)(F)F)cc2)C(=O)c2c(C#Cc3cnc(N)cc3CF)cnn21 [[^19F]-1]

melting point: 211.51 °C
SMILES: C[C@H]1CN(c2ccc(C(F)(F)F)cc2)C(=O)c2c(C#Cc3cnc(N)cc3CO)cnn21 [Compound P-1]

melting point: 153.23 °C
SMILES: C[C@H]1CN(c2ccc(C(F)(F)F)c(CO)c2)C(=O)c2c(C#Cc3ccc(N)nc3)cnn21 [Compound P-3]

Eff Curve [1]: 94 | IC50 [1]: 2.82 nM | Brain uptake in PET scan, in words ([2]; 90 min dynamic PET scan): high brain uptake | Biodistribution, mean SUV ([3]; blood, 2 min after i.v. injection): 0.96 SUV | Biodistribution, mean SUV ([3]; blood, 10 min after i.v. injection): 0.92 SUV | Biodistribution, mean SUV ([3]; blood, 60 min after i.v. injection): 0.67 SUV | Biodistribution, mean SUV ([3]; bone, 2 min after i.v. injection): 0.53 SUV | Biodistribution, mean SUV ([3]; bone, 10 min after i.v. injection): 0.62 SUV | Biodistribution, mean SUV ([3]; bone, 60 min after i.v. injection): 2.77 SUV | Biodistribution, mean SUV ([3]; cerebellum, 2 min after i.v. injection): 1.53 SUV | Biodistribution, mean SUV ([3]; cerebellum, 10 min after i.v. injection): 1.23 SUV | Biodistribution, mean SUV ([3]; cerebellum, 60 min after i.v. injection): 0.73 SUV | Biodistribution, mean SUV ([3]; cerebrum + cerebellum, 2 min after i.v. injection): 1.44 SUV | Biodistribution, mean SUV ([3]; cerebrum + cerebellum, 10 min after i.v. injection): 1.34 SUV | Biodistribution, mean SUV ([3]; cerebrum + cerebellum, 60 min after i.v. injection): 0.89 SUV | Biodistribution, mean SUV ([3]; cortex, 2 min after i.v. injection): 2.50 SUV | Biodistribution, mean SUV ([3]; cortex, 10 min after i.v. injection): 2.51 SUV | Biodistribution, mean SUV ([3]; cortex, 60 min after i.v. injection): 1.56 SUV | Brain uptake, in words ([3]; ex-vivo biodistribution): medium brain uptake | Defluorination judged from bone uptake over time ([3]; ex-vivo biodistribution): massive defluorination | Peripheral uptake, in words ([3]; ex-vivo biodistribution): high uptake in the liver | Biodistribution, mean SUV ([3]; heart, 2 min after i.v. injection): 2.42 SUV | Biodistribution, mean SUV ([3]; heart, 10 min after i.v. injection): 1.67 SUV | Biodistribution, mean SUV ([3]; heart, 60 min after i.v. injection): 0.82 SUV | Biodistribution, mean SUV ([3]; hippocampus, 2 min after i.v. injection): 1.03 SUV | Biodistribution, mean SUV ([3]; hippocampus, 10 min after i.v. injection): 1.17 SUV | Biodistribution, mean SUV ([3]; hippocampus, 60 min after i.v. injection): 0.74 SUV | Biodistribution, mean SUV ([3]; kidneys, 2 min after i.v. injection): 4.05 SUV | Biodistribution, mean SUV ([3]; kidneys, 10 min after i.v. injection): 2.73 SUV | Biodistribution, mean SUV ([3]; kidneys, 60 min after i.v. injection): 1.81 SUV | Biodistribution, mean SUV ([3]; liver, 2 min after i.v. injection): 8.44 SUV | Biodistribution, mean SUV ([3]; liver, 10 min after i.v. injection): 6.22 SUV | Biodistribution, mean SUV ([3]; liver, 60 min after i.v. injection): 2.83 SUV | Biodistribution, mean SUV ([3]; lungs, 2 min after i.v. injection): 2.66 SUV | Biodistribution, mean SUV ([3]; lungs, 10 min after i.v. injection): 1.52 SUV | Biodistribution, mean SUV ([3]; lungs, 60 min after i.v. injection): 1.02 SUV | Biodistribution, mean SUV ([3]; muscle, 2 min after i.v. injection): 0.88 SUV | Biodistribution, mean SUV ([3]; muscle, 10 min after i.v. injection): 0.82 SUV | Biodistribution, mean SUV ([3]; muscle, 60 min after i.v. injection): 0.59 SUV | Biodistribution, mean SUV ([3]; pancreas, 2 min after i.v. injection): 3.29 SUV | Biodistribution, mean SUV ([3]; pancreas, 10 min after i.v. injection): 2.06 SUV | Biodistribution, mean SUV ([3]; pancreas, 60 min after i.v. injection): 1.27 SUV | Biodistribution, mean SUV ([3]; pons, 2 min after i.v. injection): 1.04 SUV | Biodistribution, mean SUV ([3]; pons, 10 min after i.v. injection): 0.74 SUV | Biodistribution, mean SUV ([3]; pons, 60 min after i.v. injection): 0.40 SUV | Biodistribution, mean SUV ([3]; rest of cerebrum, 2 min after i.v. injection): 1.45 SUV | Biodistribution, mean SUV ([3]; rest of cerebrum, 10 min after i.v. injection): 1.39 SUV | Biodistribution, mean SUV ([3]; rest of cerebrum, 60 min after i.v. injection): 0.97 SUV | Biodistribution, mean SUV ([3]; spleen, 2 min after i.v. injection): 2.53 SUV | Biodistribution, mean SUV ([3]; spleen, 10 min after i.v. injection): 1.36 SUV | Biodistribution, mean SUV ([3]; spleen, 60 min after i.v. injection): 0.87 SUV | Biodistribution, mean SUV ([3]; striatum, 2 min after i.v. injection): 1.51 SUV | Biodistribution, mean SUV ([3]; striatum, 10 min after i.v. injection): 1.61 SUV | Biodistribution, mean SUV ([3]; striatum, 60 min after i.v. injection): 1.30 SUV | Biodistribution, mean SUV ([3]; whole cerebrum, 2 min after i.v. injection): 1.39 SUV | Biodistribution, mean SUV ([3]; whole cerebrum, 10 min after i.v. injection): 1.34 SUV | Biodistribution, mean SUV ([3]; whole cerebrum, 60 min after i.v. injection): 0.90 SUV | Eff Curve [4]: 107.5 | IC50 [4]: 4.37 nM
SMILES: C[C@H]1CN(c2ccc(C(F)(F)F)c(C[18F])c2)C(=O)c2c(C#Cc3ccc(N)nc3)cnn21 [Compound 2]
Brain uptake after pretreatment with compound A ([2]; 10 mg/kg compound A s.c. 60 min before tracer): peak uptake was higher after pretreatment, but generally showed a faster washout | mGluR2/3 specificity of binding in vivo ([2]; PET, baseline vs compound A pretreatment): mGluR2/3 specific binding
